Here are results for three compounds from ChEMBL document CHEMBL1122359, “Improved delivery through biological membranes. 13. Brain-specific delivery of dopamine with a dihydropyridine in equilibrium with pyridinium salt type redox delivery system” (1983).

Type in all cases: functional
Test [1] deals with Rattus norvegicus. Kind of test: In vitro Weight change in anterior pituitary after the administration of the compound.
The species entered for test [2] is Rattus norvegicus. The test is described as follows: Percent decrease in serum prolactin concentration in male rats.
Test [3] is filed under the species Rattus norvegicus. Kind of test: In vitro Inhibitory activity against prolactin release in anterior pituitary from adult female rats(Charles Rivers Labs), at a concentration of 2*10e-7M.
Test [4] is filed under the species Rattus norvegicus. The test is described as follows: In vitro Inhibitory activity against prolactin release in anterior pituitary from adult female rats(Charles Rivers Labs) at a concentration of 2*10e-8M.

Take `C[n+]1cccc(C(=O)NCCc2ccc(O)c(O)c2)c1.[I-]`: the “Weight change of AP-S” value in test [1] was 4.7 mg. For the same compound, the Decrease in test [2] was 67%. In addition, the results for the Prolactin release rate in test [3] and in test [4] were 277 ng/mg/h and 386 ng/mg/h, respectively.
In test [2], `CN1C=CCC(C(=O)NCCc2ccc(OC(=O)C(C)(C)C)c(OC(=O)C(C)(C)C)c2)=C1` showed a Decrease of 79%.
`NCCc1ccc(O)c(O)c1` [DOPAMINE] yielded a Prolactin release rate in test [4] of 355 ng/mg/h.
